Assays:
DP receptor = DP receptor (Homo sapiens, UniProt Q13258); assay: Radioligand competition binding assay, DP; settings: target PGD, compound at 10 μM in duplicate, read-out: % inhibition of control specific binding
Experimental: To determine the targets of DA compounds, the compound was assessed in binding assays for the family of prostanoid receptors. Both compounds were tested at a single concentration (10 μM) in duplicate. DA001 and DA021 inhibit the ligand binding of prostaglandin E2 receptors EP1, EP2 and EP4 and moderately to prostaglandin (PGF) to its receptor (FP), but not prostaglandin I (PGI2), thromoboxane A and prostaglandin D2 to their receptors.

BALB/c mice = assay: Murine model of oxazolone-induced ear edema; type: in vivo
Experimental: This is a contract research performed by Washington Biotechnology Inc., Columbia, Md., protocol 1041. On day 0, 42 BALB/c mice (female, Harlan Sprague-Dawley, 5-6 weeks) were shaved on the ventral surface of the right ear. 100 μl of the 5% oxazolone solution (Sigma) was then applied to the saved ear. The treated mice were then returned to the cage and kept for additional 6 days. On day 7, the mice were weighed and dosed orally with 10 ml/kg water or DA021 at either 30 mg/kg or 100 mg/kg or topically applied on both sides of both ears with 25 μl betamethasone. Thirty minutes after oral dosing, 5 μl of 3% oxazolone was applied to both sides of the right ear and 5 μl of acetone was applied to both sides of the contralateral ear. Twenty-four hours after 3% oxazolone/acetone application, the mice were euthanized, the ears removed and weighed.
To evaluate the efficacy and potency of DA021 in acute inflammation, an oxazolone-induced ear edema model was carried out in mice. Oxazolone-induced ear edema model is a commonly used skin inflammatory animal model. Oxazolone (OA) is an allergen that induces immunological responses that lead to surface edema. […] Betamethasone (BMS) which was used as a positive control, is a corticosteroid that is used as an anti-itching cream and other anti-inflammatory remedies.
Mice were then treated with betamethasone (BMS, mg, topical) or DA021 (mg/kg, p.o.) and the ears were removed and weighed. N=10 per group, significance (p-value) was calculated versus OA+vehicle using the Student's T-test, *=P≦1×10^−7, #=P≦1×10^−12.

hippocampal neurons = assay: Hippocampal neuron survival assay against NMDA excitotoxicity (LDH); type: cell-based, Sprague-Dawley rats; settings: 30 μM 24 hrs, NMDA 10-200 μM 20 min
Experimental: Hippocampal neurons/cortical neurons were prepared from embryonic day 18 Sprague-Dawley rats. After the cortices had been removed from the brain, isolated cells were plated onto Poly d-Lysine (PDL) (P0899, Sigma)-coated 48 well plates (150687, NUNC) at a density of 2×10^5 cell per well using Neurobasal Medium (NB) (21103-049, Gibco) with B27 supplement (17504-044, Gibco), penicillin/streptomycin (15140, Gibco) and 1 mM L-glutamine (25030, Gibco). The cell culture was incubated at 37° C. in a humidified atmosphere of 5% CO2 in air. Medium was changed to growth medium (Neurobasal Medium with penicillin/streptomycin and B27 supplement) after 3 hours. Half medium was changed with growth medium every 2-3 days to maintain the cells until day 10 in vitro (DIV 10). Serial dilutions of samples were prepared in growth medium and DMSO was used as vehicle control. For pre-treating assay, half of the medium was removed from wells, and equal amount of diluted samples were replaced. Cells were then incubated for 2 hours at 37° C. in a humidified atmosphere of 5% CO2 in air. […] Afterwards, cells were incubated in growth medium for 18-24 hours and detected with Cytotoxicity Detection Kit (1644793, Roche).
Hippocampal neurons were treated with DA021 and subsequently subjected to varying concentrations of NMDA. […] LDH release into the medium was then measured.

[1] = system: C/EBP-b and c-fos expression in cortical neurons; assay: C/EBP-b and c-fos mRNA (real-time PCR) in cortical neurons; type: cell-based; settings: vs DMSO
Experimental: FIG. 4. DA001 induces CEBPb mRNA in cortical neurons. Cortical neurons were incubated with DA001 or the DMSO control for 3 different time intervals. Gene expression was normalized against the house-keeping gene, hypoxanthine phosphoribosyltransferase 1 (HPRT1) and glyceraldehyde 3-phosphate dehydrogenase (GAPDH) and compared to the control (DMSO) treatment. Relative change in gene expression induced by DA001 was compared with DMSO. Asterisk represents P<0.05.
Cortical neurons of 11 DIV-12 DIV were pre-incubated with DA001 or DMSO for 24 hours. Cells were washed in Locke's medium without magnesium for 15 min, followed by the treatment of NMDA (20 μM) or water for 20 min. Neurons were incubated with normal growth medium and total RNA were extracted at different time intervals after or without NMDA treatment. Total RNA was extracted using RNeasy Mini kit (Qiagen) according to the manufacturer's protocol, and was reverse-transcribed into single-stranded cDNA with SuperScript II Reverse Transcriptase (Invitrogen) and oligo-dT primers. Real-time Quantitative PCR was performed using Power SYBR Green PCR Master Mix (Applied Biosystems) on the Mx3000P Real-Time PCR System (Stratagene). […]
Cortical neurons were treated with DA001 at different time intervals. The expression of CCAAT/enhancer binding protein beta (C/EBP-b) and c-fos was measured at three different time intervals by real-time PCR. […]

DP receptor, sequence (Q13258 whole entry): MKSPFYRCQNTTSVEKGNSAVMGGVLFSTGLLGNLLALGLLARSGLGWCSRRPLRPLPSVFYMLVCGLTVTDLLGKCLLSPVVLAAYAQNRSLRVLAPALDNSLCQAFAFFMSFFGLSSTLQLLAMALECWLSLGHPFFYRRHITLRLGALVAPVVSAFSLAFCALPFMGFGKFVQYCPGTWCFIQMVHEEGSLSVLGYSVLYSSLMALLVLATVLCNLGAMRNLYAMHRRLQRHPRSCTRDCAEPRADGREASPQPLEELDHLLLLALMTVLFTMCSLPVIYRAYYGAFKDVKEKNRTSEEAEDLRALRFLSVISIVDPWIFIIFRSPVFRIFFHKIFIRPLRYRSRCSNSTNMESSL

Structure (SMILES)	inhibition at 10 µM (DP receptor)	Change in Ear Weight (mg), Average (BALB/c mice; 30 mg/kg po)	Change in Ear Weight, % Inhibition (BALB/c mice; 30 mg/kg po)	Change in Ear Weight (mg), Average (BALB/c mice; 100 mg/kg po)	Change in Ear Weight, % Inhibition (BALB/c mice; 100 mg/kg po)	protection from NMDA-induced excitotoxicity (LDH release) (hippocampal neurons)	C/EBP-b expression (mRNA) ([1]; after a 2-day treatment)	c-fos expression (mRNA) ([1]; similar conditions)
C=C(C)[C@@H]1CC[C@]2(/C=N/O)CC[C@]3(C)C(CCC4[C@@]5(C)CCC(=O)[C@@](C)(CO)[C@@H]5CC[C@]43C)C12 (some centres unmarked) [DA021]	0%	48.3 mg	31.7%	33.3 mg	52.9%	protects neurons against differing concentrations of NDMA		
C=C(C)[C@@H]1CC[C@]2(C(=O)O)CC[C@]3(C)C(CC[C@@H]4[C@@]5(C)CC[C@H](O[C@@H]6OC[C@H](O)[C@H](O)[C@H]6O[C@@H]6O[C@@H](C)[C@H](O)[C@@H](O)[C@H]6O)[C@@](C)(CO)[C@@H]5CC[C@]43C)[C@@H]12 (stereo partly drawn) [DA001, 3-O-[α-L-rhamnopyranosyl-(1→2)-α-L-arabinopyranosyl]-3,23-dihydroxy-20(29)-lupen-28-oic acid]							induced C/EBP-b expression	did not affect expression of c-fos

— patent US9029414B2, “Triterpenoid compounds and methods of use thereof” (Biotechnology Research Corporation, priority 2008, dated 2015)
